We go through one compound from patent publication US20220313708A1, “COMBINATION PRODUCT CONTAINING LIMONOID COMPOUND AND SGLT-2 INHIBITOR” (ZHEJIANG YANGSHENGTANG INSTITUTE OF NATURAL MEDICATION CO., …, priority 2019, published 2022).

The subject of this assay is mouse type II diabetes model with pancreatic islet damage and obesity. Kind of assay: Blood glucose in mouse type II diabetes model with pancreatic islet damage and obesity (STZ + high-fat diet, Example 5, tofogliflozin). Format: in vivo. The following applies: STZ + high-fat diet ICR mice; single agent 0.5 g/kg per day by gavage, two weeks; 1 h after last administration; mean ± SD. The source says: In this example, a mouse model of type II diabetes with pancreatic islet damage and obesity was established by multiple modeling ICR mice with a small dose of streptozotocin (STZ), following with continuous high-fat diets (referring to literature: Zhang Jiyuan et al, Study on the effect of three plant extracts on improving glucose and lipid metabolism in type 2 diabetic mice, Food and Machinery, 2016, 32 (12): 142-147). […]
Experimental grouping: 15 male mice were randomly selected as the normal control group, and the remaining mice were subjected to a high-fat diet (high-fat diet formula: cholesterol 1%, egg yolk powder 10%, lard oil 10%, and basic feed 79%, for establishing an obesity mouse model) for consecutive 4 weeks and intraperitoneal injection of STZ at a dose of 35 mg/kg for three consecutive days. After one week, the mice were subject to 24 hours of fasting and water deprivation, their fasting blood glucose was measured, and the mice with a blood glucose level of 15 to 25 mmol/L were selected and undifferentiatedly grouped and used in the experiment, continuously subjected to the high-fat diet, 15 mice in each group, and subjected to blood sampling and detection of indicators after 2 weeks of administration. […]

On to `CCc1ccc(Cc2ccc3c(c2)[C@]2(OC3)O[C@H](CO)[C@@H](O)[C@H](O)[C@H]2O)cc1` [Tofogliflozin, tofogliflozin], for which the Blood glucose value was 10.1 ± 2.7 mmol/L.
